# Measured values: patent publication US8906889B2, “C-3 cycloalkenyl triterpenoids with HIV maturation inhibitory activity” (priority 2012, dated 2014)
# Test system: recombinant NL4-3 virus (Renilla luciferase, Gag P373S)
# Experiment: HIV cell culture assay (luciferase reporter, MT-2 cells)
# Format: cell-based
# Conditions: Renilla, NL43, MT-2 cells infected for 4-5 days with NLRluc recombinants; luciferase activity
# Procedure, shortened: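 MT-2 cells were infected for 4–5 days with NL4-3 carrying Renilla luciferase in place of part of nef and the Gag P373S change, in the presence of serially diluted inhibitor. Antiviral activity was quantified as luciferase signal from Dual Luciferase reagent.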
row,Compound,EC50 [nM]
1,"C=C(C)[C@@H]1CC[C@]2(NCCN3CCS(=O)(=O)CC3)CC[C@]3(C)[C@H](CC[C@@H]4[C@@]5(C)CC=C(C6=CCC(CO)(C(=O)O)CC6)C(C)(C)[C@@H]5CC[C@]43C)[C@@H]12 (stereo partly drawn) [Example A12, 4-((1R,3aS,5aR,5bR,7aR,11aS,11bR,13aR,13bR)-3a-((2-(1,1-dioxidothiomorpholino)ethyl)amino)-5a,5b,8,8,11a-pentamethyl-1-(prop-1-en-2-yl)-2,3,3a,4,5,5a,5b,6,7,7a,8,11,11a,11b,12,13,13a,13b-octadecahydro-1H-cyclopenta[a]chrysen-9-yl)-1-(hydroxymethyl)cyclohex-3-enecarboxylic acid]",2.46
2,"C=C(C)[C@@H]1CC[C@]2(CNCCCN3CCS(=O)(=O)CC3)CC[C@]3(C)[C@H](CC[C@@H]4[C@@]5(C)CC=C(C6=CC7(C6)CC(C(=O)O)(C(=O)O)C7)C(C)(C)[C@@H]5CC[C@]43C)[C@@H]12 [Example A14, 6-((1R,3aS,5aR,5bR,7aR,11aS,11bR,13aR,13bR)-3a-(((3-(1,1-dioxidothiomorpholino)propyl)amino)methyl)-5a,5b,8,8,11a-pentamethyl-1-(prop-1-en-2-yl)-2,3,3a,4,5,5a,5b,6,7,7a,8,11,11a,11b,12,13,13a,13b-octadecahydro-1H-cyclopenta[a]chrysen-9-yl)spiro[3.3]hept-5-ene-2,2-dicarboxylic acid]",190
3,"C=C(C)[C@@H]1CC[C@]2(NCCN3CCS(=O)(=O)CC3)CC[C@]3(C)[C@H](CC[C@@H]4[C@@]5(C)CC=C(C6=CC(C)=C(C(=O)O)CC6)C(C)(C)[C@@H]5CC[C@]43C)[C@@H]12 [Example A16, 4-((1R,3aS,5aR,5bR,7aR,11aS,11bR,13aR,13bR)-3a-((2-(1,1-dioxidothiomorpholino)ethyl)amino)-5a,5b,8,8,11a-pentamethyl-1-(prop-1-en-2-yl)-2,3,3a,4,5,5a,5b,6,7,7a,8,11,11a,11b,12,13,13a,13b-octadecahydro-1H-cyclopenta[a]chrysen-9-yl)-2-methylcyclohexa-1,3-dienecarboxylic acid]",2.23
4,"C=C(C)[C@@H]1CC[C@]2(NCCN3CCS(=O)(=O)CC3)CC[C@]3(C)[C@H](CC[C@@H]4[C@@]5(C)CC=C(C6=COC(C)(C(=O)O)OC6)C(C)(C)[C@@H]5CC[C@]43C)[C@@H]12 (stereo partly drawn) [Example A17, 5-((1R,3aS,5aR,5bR,7aR,11aS,11bR,13aR,13bR)-3a-((2-(1,1-dioxidothiomorpholino)ethyl)amino)-5a,5b,8,8,11a-pentamethyl-1-(prop-1-en-2-yl)-2,3,3a,4,5,5a,5b,6,7,7a,8,11,11a,11b,12,13,13a,13b-octadecahydro-1H-cyclopenta[a]chrysen-9-yl)-2-methyl-4H-1,3-dioxine-2-carboxylic acid]",320
5,"C=C(C)[C@@H]1CC[C@]2(NCCN3CCS(=O)(=O)CC3)CC[C@]3(C)[C@H](CC[C@@H]4[C@@]5(C)CC=C(C6=CC(C(=O)O)CC6)C(C)(C)[C@@H]5CC[C@]43C)[C@@H]12 (stereo partly drawn) [Example A21, 3-((1R,3aS,5aR,5bR,7aR,11aS,11bR,13aR,13bR)-3a-((2-(1,1-dioxidothiomorpholino)ethyl)amino)-5a,5b,8,8,11a-pentamethyl-1-(prop-1-en-2-yl)-2,3,3a,4,5,5a,5b,6,7,7a,8,11,11a,11b,12,13,13a,13b-octadecahydro-1H-cyclopenta[a]chrysen-9-yl)cyclopent-2-enecarboxylic acid]",2.76
6,"C=C(C)[C@@H]1CC[C@]2(NCCN3CCS(=O)(=O)CC3)CC[C@]3(C)[C@H](CC[C@@H]4[C@@]5(C)CC=C(C6=CCC(C(=O)O)C6)C(C)(C)[C@@H]5CC[C@]43C)[C@@H]12 (stereo partly drawn) [Example A22, 3-((1R,3aS,5aR,5bR,7aR,11aS,11bR,13aR,13bR)-3a-((2-(1,1-dioxidothiomorpholino)ethyl)amino)-5a,5b,8,8,11a-pentamethyl-1-(prop-1-en-2-yl)-2,3,3a,4,5,5a,5b,6,7,7a,8,11,11a,11b,12,13,13a,13b-octadecahydro-1H-cyclopenta[a]chrysen-9-yl)cyclopent-3-enecarboxylic acid]",3.53
7,"C=C(C)[C@@H]1CC[C@]2(NCCN3CCS(=O)(=O)CC3)CC[C@]3(C)[C@H](CC[C@@H]4[C@@]5(C)CC=C(C6=CCC(CC(=O)O)CC6)C(C)(C)[C@@H]5CC[C@]43C)[C@@H]12 (stereo partly drawn) [Example A25, 2-(4-((1R,3aS,5aR,5bR,7aR,11aS,11bR,13aR,13bR)-3a-((2-(1,1-dioxidothiomorpholino)ethyl)amino)-5a,5b,8,8,11a-pentamethyl-1-(prop-1-en-2-yl)-2,3,3a,4,5,5a,5b,6,7,7a,8,11,11a,11b,12,13,13a,13b-octadecahydro-1H-cyclopenta[a]chrysen-9-yl)cyclohex-3-en-1-yl)acetic acid]",1.31
8,"C=C(C)[C@@H]1CC[C@]2(NCCN3CCS(=O)(=O)CC3)CC[C@]3(C)[C@H](CC[C@@H]4[C@@]5(C)CC=C(C6=CC=C(C(=O)O)CC6)C(C)(C)[C@@H]5CC[C@]43C)[C@@H]12 [Example A29, 4-((1R,3aS,5aR,5bR,7aR,11aS,11bR,13aR,13bR)-3a-((2-(1,1-dioxidothiomorpholino)ethyl)amino)-5a,5b,8,8,11a-pentamethyl-1-(prop-1-en-2-yl)-2,3,3a,4,5,5a,5b,6,7,7a,8,11,11a,11b,12,13,13a,13b-octadecahydro-1H-cyclopenta[a]chrysen-9-yl)cyclohexa-1,3-dienecarboxylic acid]",1.37
9,"C=C(C)[C@@H]1CC[C@]2(NCCS(=O)(=O)c3ccccc3)CC[C@]3(C)[C@H](CC[C@@H]4[C@@]5(C)CC=C(C6=CC=C(C(=O)O)CC6)C(C)(C)[C@@H]5CC[C@]43C)[C@@H]12 [Example A30, 4-((1R,3aS,5aR,5bR,7aR,11aS,11bR,13aR,13bR)-5a,5b,8,8,11a-pentamethyl-3a-((2-(phenylsulfonyl)ethyl)amino)-1-(prop-1-en-2-yl)-2,3,3a,4,5,5a,5b,6,7,7a,8,11,11a,11b,12,13,13a,13b-octadecahydro-1H-cyclopenta[a]chrysen-9-yl)cyclohexa-1,3-dienecarboxylic acid]",90
10,"C=C(C)[C@@H]1CC[C@]2(NCCN3CCS(=O)(=O)CC3)CC[C@]3(C)[C@H](CC[C@@H]4[C@@]5(C)CC=C(C6=CCC(NC(C)=O)(C(=O)O)CC6)C(C)(C)[C@@H]5CC[C@]43C)[C@@H]12 (stereo partly drawn) [Example A31, 1-acetamido-4-((1R,3aS,5aR,5bR,7aR,11aS,11bR,13aR,13bR)-3a-((2-(1,1-dioxidothiomorpholino)ethyl)amino)-5a,5b,8,8,11a-pentamethyl-1-(prop-1-en-2-yl)-2,3,3a,4,5,5a,5b,6,7,7a,8,11,11a,11b,12,13,13a,13b-octadecahydro-1H-cyclopenta[a]chrysen-9-yl)cyclohex-3-enecarboxylic acid]",10
